Measurements as given in patent US20060004019A1, “Steroid sparing agents and methods of using same” (priority 2004, published 2006).

Key:
[1] = test system: rat cardiac allografts; assay: Rat cardiac allograft study, Allograft Study 5, dose response (Table 23); assay type: in vivo; conditions: 30 mg/kg s.c.
[2] = test system: rat cardiac allografts; assay: Rat cardiac allograft study, Allograft Study 4 (Table 22); conditions: s.c., GG5/3 3 mg/kg, compounds 30 mg/kg;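 note: heterotopic abdominal heart transplants from Lewis × Brown Norway F1 donors into male Lewis rats, graft beating checked daily by flank palpation, rejection defined as complete stop of heartbeat, transplant day 0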
Description: Hearts from Lewis X Brown Norway F1 hybrids were transplanted to the abdominal great vessels of Lewis recipients using standard microvascular techniques. Both rat strains were male inbred rats, weighing 200-300 g. Food and water was available at all times except during surgical and dosing procedures. The day of transplantation was noted as day 0. Twelve hours following the last dose approximately 1 ml of blood was collected into lithium/heparin anti-coagulant tubes. If any graft was rejected prior to the last day of dosing, blood samples were taken 12 hours after dosing on the day that graft rejection was noted. All blood samples were centrifuged at 3000 rpm for 10 minutes and the plasma was harvested, frozen on dry ice and stored frozen at −20 C prior to analysis. Allograft survival in the rats was evaluated by daily palpation of the transplanted heart through the recipient's flank. Rejection was taken as the day of complete cessation of the graft's heart beat. Upon determination of rejection, the abdomen of the recipient was incised and retracted to confirm cessation of the heart beat in the transplanted heart. If cessation of the heart beat was not confirmed the abdomen was surgically closed, and the grafted heart was evaluated daily.
Cardiac allografts were established. Dosing of compounds began on day −2, 2 days prior to transplantation and continued through day +10. […] The vehicle control, 0.9% saline, pH adjusted to a value of 5, to match the dosing solution containing the N-[N-(3-pyridinesulfonyl)-L-3,3-dimethyl-4-thiaprolyl]-0-[1-methylpiperazin-4-ylcarbonyl]-L-tyrosine isopropyl ester, was administered via the same route, i.e. every 12 hours, day −2 through day +10. The antibody, GG5/3 in 0.9% saline, was administered at 3 mg/kg, s.c., on day 0, +3, +7 and +10. All GG5/3 animals received twice daily s.c. injections of 0.9% saline, every 12 hours, from day −2 through day +10. The vehicle control, 0.9% saline, was administered daily, s.c., day 0 through day +10. All dosing solutions were formulated daily at a constant dose volume of 5 ml/kg. The site of injection was rotated at each injection through four possible sites: right and left fore flank, right and left rear flank. A total of 21 allografts, amongst 5 groups, were evaluated in the study. […] Two animals within the 0.9% saline group received saline adjusted to a pH a value of 5. (The pH value of the N-[N-(3-pyridinesulfonyl)-L-3,3-dimethyl-4-thiaprolyl]-0-[1-methylpiperazin-4-ylcarbonyl]-L-tyrosine isopropyl ester dosing solution.) The remaining two animals received saline of pH 7. Group 2 consisted of 6 animals treated with the monoclonal antibody, GG5/3. […] Twelve hours following the last dose approximately 1 ml of blood was collected into lithium/heparin anti-coagulant tubes. If any graft was rejected prior to the last day of dosing, blood samples were taken 12 hours after dosing on the day that graft rejection was noted. All samples were centrifuged at 3000 rpm for 10 minutes and the plasma was harvested, frozen on dry ice and stored frozen at −20 C prior to dispatch for analysis. Allograft survival in the rats was evaluated by daily palpation of the transplanted heart through the recipient's flank. Rejection was taken as the day of complete cessation of graft's heart beat. Upon determination of rejection, the abdomen of the recipient was incised to confirm cessation of the heart beat in the transplanted heart. If cessation of the heart beat was not confirmed the abdomen was surgically closed, and the graft was evaluated daily.

CC(C)OC(=O)[C@H](Cc1ccc(OC(=O)N2CCN(C)CC2)cc1)NC(=O)[C@H]1N(S(=O)(=O)c2cccnc2)CSC1(C)C [listing 1 of 3 here]
graft survival, data normalized to group size ([1]; day 1): 100% | graft survival, data normalized to group size ([1]; day 2): 100% | graft survival, data normalized to group size ([1]; day 3): 100% | graft survival, data normalized to group size ([1]; day 4): 100% | graft survival, data normalized to group size ([1]; day 5): 100% | graft survival, data normalized to group size ([1]; day 6): 100% | graft survival, data normalized to group size ([1]; day 7): 100% | graft survival, data normalized to group size ([1]; day 8): 100% | graft survival, data normalized to group size ([1]; day 9): 100% | graft survival, data normalized to group size ([1]; day 10): 100% | graft survival, data normalized to group size ([1]; day 11): 100% | graft survival, data normalized to group size ([1]; day 12): 100% | graft survival, data normalized to group size ([1]; day 13): 100% | graft survival, data normalized to group size ([1]; day 14): 100%

CC(C)OC(=O)[C@H](Cc1ccc(OC(=O)N2CCN(C)CC2)cc1)NC(=O)[C@H]1N(S(=O)(=O)c2cccnc2)CSC1(C)C [listing 2 of 3 here]
percent of surviving grafts within a group ([2]; day 0): 100% | percent of surviving grafts within a group ([2]; day 1): 100% | percent of surviving grafts within a group ([2]; day 2): 100% | percent of surviving grafts within a group ([2]; day 3): 100% | percent of surviving grafts within a group ([2]; day 4): 100% | percent of surviving grafts within a group ([2]; day 5): 100% | percent of surviving grafts within a group ([2]; day 6): 100% | percent of surviving grafts within a group ([2]; day 7): 100% | percent of surviving grafts within a group ([2]; day 8): 100% | percent of surviving grafts within a group ([2]; day 9): 83% | percent of surviving grafts within a group ([2]; day 10): 66% | percent of surviving grafts within a group ([2]; day 11): 66% | percent of surviving grafts within a group ([2]; day 12): 66% | percent of surviving grafts within a group ([2]; day 13): 66% | percent of surviving grafts within a group ([2]; day 14): 66% | percent of surviving grafts within a group ([2]; day 15): 66% | percent of surviving grafts within a group ([2]; day 16): 50% | percent of surviving grafts within a group ([2]; day 17): 50% | percent of surviving grafts within a group ([2]; day 18): 50% | percent of surviving grafts within a group ([2]; day 19): 50% | number of surviving grafts ([2]; day 20): 2 | percent of surviving grafts within a group ([2]; day 20): 33% | number of surviving grafts ([2]; day 21): 2 | percent of surviving grafts within a group ([2]; day 21): 33% | number of surviving grafts ([2]; day 22): 2 | percent of surviving grafts within a group ([2]; day 22): 33% | number of surviving grafts ([2]; day 23): 2 | percent of surviving grafts within a group ([2]; day 23): 33% | number of surviving grafts ([2]; day 24): 2 | percent of surviving grafts within a group ([2]; day 24): 33% | number of surviving grafts ([2]; day 25): 2 | percent of surviving grafts within a group ([2]; day 25): 33% | number of surviving grafts ([2]; day 26): 2 | percent of surviving grafts within a group ([2]; day 26): 33% | number of surviving grafts ([2]; day 27): 2 | percent of surviving grafts within a group ([2]; day 27): 33% | number of surviving grafts ([2]; day 28): 2 | percent of surviving grafts within a group ([2]; day 28): 33% | number of surviving grafts ([2]; day 29): 2 | percent of surviving grafts within a group ([2]; day 29): 33% | number of surviving grafts ([2]; day 30): 2 | percent of surviving grafts within a group ([2]; day 30): 33% | number of surviving grafts ([2]; day 31): 1 | percent of surviving grafts within a group ([2]; day 31): 16% | number of surviving grafts ([2]; day 32): 1 | percent of surviving grafts within a group ([2]; day 32): 16% | number of surviving grafts ([2]; day 33): 1 | percent of surviving grafts within a group ([2]; day 33): 16% | number of surviving grafts ([2]; day 34): 1 | percent of surviving grafts within a group ([2]; day 34): 16% | number of surviving grafts ([2]; day 35): 1 | percent of surviving grafts within a group ([2]; day 35): 16% | number of surviving grafts ([2]; day 36): 1 | percent of surviving grafts within a group ([2]; day 36): 16% | number of surviving grafts ([2]; day 37): 1 | percent of surviving grafts within a group ([2]; day 37): 16% | number of surviving grafts ([2]; day 38): 1 | percent of surviving grafts within a group ([2]; day 38): 16% | number of surviving grafts ([2]; day 39): 1 | percent of surviving grafts within a group ([2]; day 39): 16% | number of surviving grafts ([2]; day 40): 1 | percent of surviving grafts within a group ([2]; day 40): 16% | number of surviving grafts ([2]; day 41): 1 | percent of surviving grafts within a group ([2]; day 41): 16% | number of surviving grafts ([2]; day 42): 0 | percent of surviving grafts within a group ([2]; day 42): 0%

CC(C)OC(=O)[C@H](Cc1ccc(OC(=O)N2CCN(C)CC2)cc1)NC(=O)[C@H]1N(S(=O)(=O)c2cccnc2)CSC1(C)C [listing 3 of 3 here]
number of surviving grafts ([2]; day 0): 6 | number of surviving grafts ([2]; day 1): 6 | number of surviving grafts ([2]; day 2): 6 | number of surviving grafts ([2]; day 3): 6 | number of surviving grafts ([2]; day 4): 6 | number of surviving grafts ([2]; day 5): 6 | number of surviving grafts ([2]; day 6): 6 | number of surviving grafts ([2]; day 7): 6 | number of surviving grafts ([2]; day 8): 6 | number of surviving grafts ([2]; day 9): 5 | number of surviving grafts ([2]; day 10): 4 | number of surviving grafts ([2]; day 11): 4 | number of surviving grafts ([2]; day 12): 4 | number of surviving grafts ([2]; day 13): 4 | number of surviving grafts ([2]; day 14): 4 | number of surviving grafts ([2]; day 15): 4 | number of surviving grafts ([2]; day 16): 3 | number of surviving grafts ([2]; day 17): 3 | number of surviving grafts ([2]; day 18): 3 | number of surviving grafts ([2]; day 19): 3
